Assay [1] addresses T1, hGPR35a (Homo sapiens, UniProt Q9HC97).
T1 construct: gene GPR35; FLAG-hGPR35a (N-terminal FLAG tag); with Gα13/Gβ3/Gγ9
Description: BRET G protein re-association (inverse agonism) in HEK293 cells; effect in HEPG2 cells lost on GPR35 knock-out. The format is cell-based.

The target of assay [2] is T1, hGPR35a. Briefly: BRET G protein dissociation (TRUPATH-like) in Flp-In T-REx […] cells expressing FLAG-hGPR35a. The format is cell-based.

We go through two compounds from article PMC11732441, “Biased constitutive signaling of the G protein-coupled receptor GPR35 suppresses gut barrier permeability [drawing 1]” (The Journal of Biological Chemistry, 2024).

Each structure is given as a SMILES string.

T1 sequence (Q9HC97 whole entry): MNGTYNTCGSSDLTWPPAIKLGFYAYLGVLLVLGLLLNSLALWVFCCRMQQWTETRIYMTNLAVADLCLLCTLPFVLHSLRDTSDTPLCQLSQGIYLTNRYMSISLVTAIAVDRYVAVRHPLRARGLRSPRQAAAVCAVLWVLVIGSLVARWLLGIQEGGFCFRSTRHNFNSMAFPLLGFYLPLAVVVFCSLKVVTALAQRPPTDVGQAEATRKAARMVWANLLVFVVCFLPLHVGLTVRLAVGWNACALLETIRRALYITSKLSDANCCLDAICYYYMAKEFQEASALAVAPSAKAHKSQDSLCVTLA
T1 sequence (Q14344 whole entry partner): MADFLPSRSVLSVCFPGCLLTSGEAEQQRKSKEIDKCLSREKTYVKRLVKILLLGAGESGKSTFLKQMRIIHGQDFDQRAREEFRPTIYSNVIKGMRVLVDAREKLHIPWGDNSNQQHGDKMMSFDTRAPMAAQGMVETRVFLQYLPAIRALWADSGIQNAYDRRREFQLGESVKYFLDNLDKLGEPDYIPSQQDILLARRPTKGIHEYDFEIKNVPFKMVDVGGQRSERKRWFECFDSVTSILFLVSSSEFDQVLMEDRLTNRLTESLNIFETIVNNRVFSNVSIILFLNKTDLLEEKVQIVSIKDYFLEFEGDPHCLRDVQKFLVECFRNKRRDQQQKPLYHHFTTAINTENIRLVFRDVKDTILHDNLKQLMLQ
T1 sequence (P16520 whole entry partner): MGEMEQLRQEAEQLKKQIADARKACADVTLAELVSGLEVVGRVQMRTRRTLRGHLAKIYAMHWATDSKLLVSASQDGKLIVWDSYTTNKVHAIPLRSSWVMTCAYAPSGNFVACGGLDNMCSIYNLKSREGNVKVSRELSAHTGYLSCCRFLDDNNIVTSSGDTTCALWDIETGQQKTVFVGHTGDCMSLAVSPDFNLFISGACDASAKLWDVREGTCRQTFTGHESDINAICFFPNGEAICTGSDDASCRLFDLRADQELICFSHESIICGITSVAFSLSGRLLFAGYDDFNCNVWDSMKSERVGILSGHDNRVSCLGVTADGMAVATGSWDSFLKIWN
T1 sequence (O14610 1-66 partner): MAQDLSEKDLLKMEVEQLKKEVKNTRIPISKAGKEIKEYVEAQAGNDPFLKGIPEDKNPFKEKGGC

Take `COC(=O)c1cnn(-c2ccc(F)cc2F)c1C=NNC(=S)NC(C)(C)C` [CID-2745687]: the “BRET G protein re-association (inverse agonism) in HEK293 cells; effect in HEPG2” value in assay [1] is reported as “the BRET signal induced by CID-2745687 increased with receptor plasmid amount”.
What is called EC50 is the concentration needed to bring the measured effect to its halfway point. The compound `N#Cc1cc(NC(=O)C(=O)O)c(Cl)c(NC(=O)C(=O)O)c1` [lodoxamide] showed an EC50 in assay [2] of 1.48 nM. That is a single-digit nanomolar value.
